According to US10759777B2, “Carbazole-containing amides, carbamates, and ureas as cryptochrome modulators” (Synchronicity Pharma, Inc., priority 2014, dated 2020):

Assays:
[1] = tested on: Dbp gene expression in whole blood; test: Dbp mRNA in whole blood of db/db mice; type: in vivo, mouse; details: 100 mg/kg PO once daily for three days at ZT0, sampled ZT7.5
Protocol: For whole blood RNA studies, male db/db mice (9 weeks of age, The Jackson Laboratory, Bar Harbor, Me.) were used for the experiment with n=8 mice for each experimental group. […] On the final day at ZT7.5 (2:30 pm), animals were euthanized using CO2 asphyxiation, and the blood collected from the heart via cardiac puncture. The blood was placed in RNALater solution to 1.5 ml total volume. Total RNA was prepared using an Ambion Mouse RiboPure Blood RNA Isolation Kit AM1951 as follows. Samples were centrifuged for 3 minutes, discarding the supernatant. Two ml of lysis solution was added and vortexed, transferred to a 15 ml tube followed by the addition of […]. Lysis buffer was added to a total volume of 3.8 ml and vortexed. The sample mixture was extracted with 1.5 ml Acid Phenol: Chloroform and the aqueous phase was recovered. After adding 0.5 volumes of 100% ethanol and vortexing, the samples were passed through a filter column provided in the kit and washed with 750 microliters of wash buffer 1. The filter was washed with 2 passes of 750 microliters wash buffer 2/3 and dried. […]
For PCR analysis, the kit utilized was TaqMan® Fast Universal Master Mix (2×), No AmpErase® UNG. […] At least one housekeeping mRNA Expression Assay (e.g. GAPDH; Mm03302249_g1 or Hs02758991_g1) was included in each set of RNA samples to be assessed. […]

[2] = tested on: db/db mouse model of type II diabetes; test: Compound 72 administered over 7 days in db/db mice (glucose, insulin, compound levels); type: in vivo; details: 50 mg/kg PO QD 7 days
Source text: Significance was accepted when p<0.05.

[3] = tested on: rat model of cortisone-induced insulin resistance; test: Cortisone induced insulin resistance in rats; type: in vivo; details: 50 mg/kg po with cortisone 30 mg/kg sc
Protocol: Animals were dosed with cortisone (30 mg/kg sc qd) in combination with test compounds for 6 days and then terminated 27 hours after the final dose of cortisone. A reference standard (Mifepristone) was also included. Cortisone 21-acetate (Sigma C-3130) was supplied by RenaSci and administered using a dose volume of 5 ml/kg via the subcutaneous route as a fine suspension in 1% methylcellulose. […] Mifepristone (Sigma M8046) was provided by RenaSci.
Glucose and insulin determinations were performed on plasma samples obtained from a tail vein bleed taken after a 12 h fast, approximately 27 h after the last cortisone dose. Animals were then terminated and a terminal (cardiac) blood sample taken from which plasma was prepared.
Thirty four male Sprague Dawley rats (weight range 200-250 g) were ordered from Charles River, Margate, Kent, UK. […] Subsequently, animals underwent a 3 day baseline period during which they were dosed once daily with vehicle at t=0 h (07:00). […] Body weight was recorded immediately before dosing began at 07:00 (t=0 h).
On Day 6 of dosing rats were fasted for 12 h beginning at 22:30 (timed to coincide with the Day 7 termination). […] At 10:30 on Day 7, 27 h after the final dose of cortisone, a blood sample (300 μl) was taken from the lateral tail vein into tubes containing EDTA (Sarstedt 16.444). The blood was centrifuged and resultant plasma aliquot stored at −75° C. The animals were euthanized by CO2 asphyxiation followed by cervical dislocation. Terminal blood (approximately 10 ml) was collected by cardiac puncture into tubes containing EDTA (Sarstedt 5 ml 32.332) and then centrifuged and plasma stored at −75° C. The tail vein plasma was analyzed for glucose (n=2) using a commercial clinical reagent (Thermoelectron Infinity glucose reagent (TR15421) and for insulin (n=1) using the Mercodia ultrasensitive rat insulin rat ELISA (10-1251-10).
Plasma glucose and insulin were analyzed by robust regression or general linear model with treatment as a factor and bleeding order and baseline body weight as covariates. A log transformation was used if appropriate. Appropriate multiple comparison tests (two-tailed) were used to determine significant differences from the vehicle group and from the Cortisone group. P<0.05 was considered to be statistically significant.

SMILES: O=C1NCCN1CC(O)Cn1c2ccc(F)cc2c2cc(F)ccc21 (stereo not drawn) [Compound 72, 1-(3-(3,6-difluoro-9H-carbazol-9-yl)-2-hydroxypropyl)imidazolidin-2-one]
- Dbp gene expression in whole blood [1]: statistically significant suppression
- OGTT glucose course ([2]; db/db mice): lower than the vehicle control group
- reduction of HOMA-IR ([2]; vs vehicle): 33%
- reduction of insulin at t=0 ([2]; vs vehicle): 20%
- reduction of insulin at t=2 hr ([2]; vs vehicle): 21%
- fasted plasma insulin [3]: 5.24 ± 1.11 ng/mL
